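Values below derive from 48-hour exposures of cells grown in 96-well plates, with endpoints linearly interpolated between the two concentrations bracketing the appropriate inhibition level. GI50: concentration for 50% inhibition of growth. TGI: concentration producing complete growth inhibition.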
Experiments:
Test in all cases: growth of human tumour cells (NCI), 48 h
[1] = test system: IGROV1 ovarian
[2] = test system: SK-OV-3 ovarian
[3] = test system: HCT-116 colon
[4] = test system: MDA-MB-231 breast
[5] = test system: SK-MEL-28 melanoma
[6] = test system: NCI-H226 lung
[7] = test system: ACHN renal
[8] = test system: SK-MEL-2 melanoma
[9] = test system: MDA-MB-435
[10] = test system: DU-145 prostate
[11] = test system: NCI/ADR-RES ovarian
[12] = test system: OVCAR-4 ovarian
[13] = test system: SK-MEL-5 melanoma
[14] = test system: SF-295 CNS
[15] = test system: MOLT-4 leukemia
[16] = test system: U251 CNS
[17] = test system: UACC-62 melanoma
[18] = test system: K-562 leukemia
[19] = test system: CCRF-CEM leukemia
[20] = test system: SF-268 CNS
[21] = test system: HCT-15 colon
[22] = test system: UO-31 renal
[23] = test system: HS 578T breast
[24] = test system: MALME-3M melanoma
[25] = test system: RPMI-8226 leukemia
[26] = test system: HCC-2998 colon
[27] = test system: NCI-H460 lung
[28] = test system: A498 renal
[29] = test system: RXF 393 renal
[30] = test system: SR leukemia
[31] = test system: SN12C renal
[32] = test system: HOP-92 NSCLC
[33] = test system: 786-0 renal
[34] = test system: TK-10 renal
[35] = test system: PC-3 prostate
[36] = test system: HOP-62 NSCLC
[37] = test system: SNB-19 CNS
[38] = test system: SNB-75 CNS
[39] = test system: M14 melanoma
[40] = test system: COLO 205 colon
[41] = test system: LOX IMVI melanoma
[42] = test system: T-47D breast
[43] = test system: SW-620 colon
[44] = test system: HL-60(TB) leukemia
[45] = test system: KM12 colon
[46] = test system: SF-539 CNS
[47] = test system: A549 NSCLC
[48] = test system: BT-549 breast
[49] = test system: HT29 colon
[50] = test system: MCF7 breast
[51] = test system: CAKI-1 renal
[52] = test system: OVCAR-8 ovarian
[53] = test system: UACC-257 melanoma
[54] = test system: OVCAR-5 ovarian
[55] = test system: OVCAR-3 ovarian

Compound: Cc1ccc(NC2=C(Cl)C(=O)c3nc(C)ccc3C2=O)c(C)c1
- GI50 [1]: 1850 nM
- TGI [1]: 3880 nM
- GI50 [2]: 2750 nM
- TGI [2]: 10600 nM
- GI50 [3]: 1520 nM
- TGI [3]: 3250 nM
- GI50 [4]: 1890 nM
- TGI [4]: 4440 nM
- GI50 [5]: 1950 nM
- TGI [5]: 3840 nM
- GI50 [6]: 1810 nM
- TGI [6]: 4630 nM
- GI50 [7]: 1910 nM
- TGI [7]: 3720 nM
- GI50 [8]: 1930 nM
- TGI [8]: 3880 nM
- GI50 [9]: 1960 nM
- TGI [9]: 3810 nM
- GI50 [10]: 1710 nM
- TGI [10]: 3220 nM
- GI50 [11]: 2170 nM
- TGI [11]: 6520 nM
- GI50 [12]: 1530 nM
- TGI [12]: 3020 nM
- GI50 [13]: 1670 nM
- TGI [13]: 3080 nM
- GI50 [14]: 1820 nM
- TGI [14]: 3430 nM
- GI50 [15]: 1600 nM
- TGI [15]: 4830 nM
- GI50 [16]: 1760 nM
- TGI [16]: 3370 nM
- GI50 [17]: 2000 nM
- TGI [17]: 4010 nM
- GI50 [18]: 1620 nM
- TGI [18]: 5540 nM
- GI50 [19]: 2020 nM
- TGI [19]: 6000 nM
- GI50 [20]: 1860 nM
- TGI [20]: 4160 nM
- GI50 [21]: 1300 nM
- TGI [21]: 3190 nM
- GI50 [22]: 1560 nM
- TGI [22]: 3150 nM
- GI50 [23]: 2280 nM
- TGI [23]: 5950 nM
- GI50 [24]: 1960 nM
- TGI [24]: 3900 nM
- GI50 [25]: 1540 nM
- TGI [25]: 4340 nM
- GI50 [26]: 1750 nM
- TGI [26]: 3310 nM
- GI50 [27]: 1990 nM
- TGI [27]: 4170 nM
- GI50 [28]: 1610 nM
- TGI [28]: 6590 nM
- GI50 [29]: 1410 nM
- TGI [29]: 2760 nM
- GI50 [30]: 1280 nM
- TGI [30]: 4190 nM
- GI50 [31]: 1950 nM
- TGI [31]: 5030 nM
- GI50 [32]: 2080 nM
- TGI [32]: 4350 nM
- GI50 [33]: 2000 nM
- TGI [33]: 4400 nM
- GI50 [34]: 2150 nM
- TGI [34]: 3680 nM
- GI50 [35]: 1560 nM
- TGI [35]: 3660 nM
- GI50 [36]: 1710 nM
- TGI [36]: 3160 nM
- GI50 [37]: 1940 nM
- TGI [37]: 4340 nM
- GI50 [38]: 1490 nM
- TGI [38]: 3080 nM
- GI50 [39]: 1620 nM
- TGI [39]: 3080 nM
- GI50 [40]: 2060 nM
- TGI [40]: 4280 nM
- GI50 [41]: 1140 nM
- TGI [41]: 3880 nM
- GI50 [42]: 1660 nM
- TGI [42]: 4140 nM
- GI50 [43]: 2150 nM
- TGI [43]: 4650 nM
- GI50 [44]: 1740 nM
- TGI [44]: 4480 nM
- GI50 [45]: 1740 nM
- TGI [45]: 3290 nM
- GI50 [46]: 1700 nM
- TGI [46]: 3210 nM
- GI50 [47]: 2220 nM
- TGI [47]: 5200 nM
- GI50 [48]: 1440 nM
- TGI [48]: 2820 nM
- GI50 [49]: 2610 nM
- TGI [49]: 7340 nM
- GI50 [50]: 1400 nM
- TGI [50]: 3580 nM
- GI50 [51]: 1730 nM
- TGI [51]: 3340 nM
- GI50 [52]: 2410 nM
- TGI [52]: 7110 nM
- GI50 [53]: 1500 nM
- TGI [53]: 2920 nM
- GI50 [54]: 2260 nM
- TGI [54]: 4330 nM
- GI50 [55]: 1420 nM
- TGI [55]: 2840 nM
